Results taken from patent US20220331303A1, “USE OF AN OREXIN 2 RECEPTOR AGONIST FOR THE TREATMENT OF EXCESSIVE SLEEPINESS” (Takeda Pharmaceutical Company Limited, priority 2019, published 2022).

Experiments:
[1] = test system: patients with NT2; assay: KSS in patients with NT2; type: in vivo, human; details: 9 hours postdose
Experimental: The purpose of the study was to evaluate the safety, tolerability, pharmacokinetics and pharmacodynamics of Compound A after multiple days of IV administration in patients with NT2. NT2 patients were evaluated in Cohort C1 and C2 (Table 30). Compound A or placebo were administered via IV infusion over 9 hours once daily for 7 days. A total of 14 patients with NT2 were treated with Compound A or placebo (5, 4, and 5 subjects in the placebo, Compound A 44 mg, and Compound A 112 mg groups, respectively). In this part, potential efficacy of Compound A was evaluated with MWT, ESS, KSS, night-time PSG (NPSG), and PGI-C as an exploratory PD assessment.

[2] = test system: subjects with obstructive sleep apnea; assay: MWT in subjects with OSA experiencing EDS despite CPAP; type: in vivo, human; details: single 9-hour IV infusion
Experimental: The treatment periods began on Day 1 of Treatment Period 1 (Study Day 1) with Treatment Periods 2 and 3 commencing on Study Days 3 and 5, respectively. In the morning of Day 1 of Treatment Period 1, eligible subjects were randomized to 1 of the 6 sequence groups as listed in Table 36. After randomization, the subject was dosed in 3 treatment periods according to the order defined by the sequence group to which he/she was randomized. On Day 1 of each treatment period, Compound A or placebo was administered as a single 9-hour IV infusion commencing at approximately 08:00. The infusion was terminated at approximately 17:00. On Day 1 of each treatment period, four 40-minute maintenance of wakefulness test (MWT) sessions was performed at 2, 4, 6, and 8 hours after the start of the infusion. Subjects were required to stay awake in between the MWT sessions.
On Day 1 of Treatment Period 1, all eligible subjects were randomized and received the first dose of study drug. Compound A or placebo was administered as a single 9-hour IV infusion commencing at approximately 08:00. […] Blood samples for determination of Compound A plasma concentrations were collected predose and at specified time points postdose, Safety assessments were recorded. During the study, AEs were recorded, clinical laboratory tests, vital signs, and safety ECGs were obtained. […]

## COC(=O)N1CCC[C@H](NS(C)(=O)=O)[C@@H]1CO[C@H]1CC[C@@H](c2ccccc2)CC1 [Compound A, methyl (2R,3S)-3-((methylsulfonyl)amino)-2-(((cis-4-phenylcyclohexyl)oxy)methyl)piperidine-1-carboxylate]
[1]; Compound A 44 mg, Day 1
  Mean change from baseline in KSS: −0.5
[1]; Compound A 44 mg, Day 7
  Mean change from baseline in KSS: 0.0
[1]; Compound A 112 mg, Day 1
  Mean change from baseline in KSS: −1.0
[1]; Compound A 112 mg, Day 7
  Mean change from baseline in KSS: −0.8
[2]; Compound A 44 mg
  Mean placebo-adjusted increase in sleep latency in the MWT: 22 min
[2]; Compound A 112 mg
  Mean placebo-adjusted increase in sleep latency in the MWT: 28 min
